The values that follow come from patent US20260308149A1, “NOVEL CARBOXAMIDE DERIVATIVES” (ANGELINI PHARMA S.P.A., priority 2023, published 2026).

By EC50 is commonly meant the concentration that produces a half-maximal response.

For this test, the target named is T1, human Kv7.2 (Homo sapiens, UniProt O43526).
T1 construct: expressed in transfected cells
T1 sequence (O43526 whole entry): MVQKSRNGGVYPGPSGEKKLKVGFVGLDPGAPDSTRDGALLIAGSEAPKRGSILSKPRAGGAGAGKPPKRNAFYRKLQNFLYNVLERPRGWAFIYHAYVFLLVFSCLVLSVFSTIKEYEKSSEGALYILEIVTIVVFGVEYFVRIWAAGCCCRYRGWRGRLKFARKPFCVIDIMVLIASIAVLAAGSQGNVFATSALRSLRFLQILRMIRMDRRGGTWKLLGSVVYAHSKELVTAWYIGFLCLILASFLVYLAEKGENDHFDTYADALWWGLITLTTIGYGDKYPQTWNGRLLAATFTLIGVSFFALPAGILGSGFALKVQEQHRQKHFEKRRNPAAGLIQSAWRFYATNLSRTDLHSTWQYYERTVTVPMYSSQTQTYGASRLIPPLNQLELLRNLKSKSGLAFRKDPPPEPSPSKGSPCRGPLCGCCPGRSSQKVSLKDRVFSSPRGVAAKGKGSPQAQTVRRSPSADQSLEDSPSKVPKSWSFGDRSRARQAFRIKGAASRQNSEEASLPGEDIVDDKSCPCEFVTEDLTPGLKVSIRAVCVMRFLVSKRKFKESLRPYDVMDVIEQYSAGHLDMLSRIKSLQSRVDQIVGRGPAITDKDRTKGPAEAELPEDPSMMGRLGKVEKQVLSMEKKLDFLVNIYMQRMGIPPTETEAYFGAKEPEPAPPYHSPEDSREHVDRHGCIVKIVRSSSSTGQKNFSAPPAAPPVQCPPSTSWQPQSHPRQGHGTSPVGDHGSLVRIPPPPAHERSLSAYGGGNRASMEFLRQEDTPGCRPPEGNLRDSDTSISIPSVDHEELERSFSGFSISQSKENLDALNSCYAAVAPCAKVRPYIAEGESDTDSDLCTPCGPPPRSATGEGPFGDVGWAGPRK
Put plainly: activation (potentiation) of Kv7.2 current, SyncroPatch 384 electrophysiology in CHO cells stably expressing human Kv7.2. The class given is cell-based. The following applies: human Kv7.2 in CHO cells; in presence of 5.6 μM zinc pyrithione; % activation relative to 30 μM ML-213. As for the experimental part: The potency of Kv7 potentiators was determined using the SyncroPatch 384 (Nanion) high throughput electrophysiology platform.
CHO cells stably expressing either human Kv7.2, Kv7.4 or Kv7.5/7.3 under a constitutive CMV promoter were used for these studies. Cells were maintained in F12 Hams+1 mM L-glutamine (Hyclone) supplemented with 10% FBS (Sigma), 0.3×NEAA (Non-essential Gamino-acids) and 400 ug/ml G418 at 37° C. in 5% CO2. Cells were cultured in T-225 flasks (Nunc) for 2-3 days to reach 85-95% confluence prior to electrophysiological recording.
Earle's balanced salt solution (in mM): 135 NaCl, 5.4 KCl, 5 Glucose, 2 CaCl2), 1 MgCl2, 5 HEPES, pH 7.4. Seal enhancer solution (in mM): 90 NaCl, 3 KCl, 35 CaCl2), 10 MgCl2, 10 HEPES, pH 7.4. Extracellular recording solution (in mM): 71 NaCl, 70 NMDG, 13 KCl. 5 Glucose, 2 CaCl2, 1 MgCl2, 10 HEPES, pH 7.4. Intracellular recording solution (in mM): 130 KF, 20 KCl, 4 EGTA, 10 HEPES, 2 EDTA, 0.01 Escin, pH 7.2.
Cells were harvested for electrophysiological recording upon reaching appropriate confluence. Cells were first washed in DPBS (Hyclone, Cat #SH30028.03) and then 2 ml of Accutase (MP Biomedicals #1000449) was added at 28° C. until ~90% of cells were suspended. F12 HAM's media+1 mM L-glutamine (Hyclone, SH30026.02) was then added to the flask to dilute the accutase. Cells were then triturated until a single cell suspension was achieved, a cell count was performed, and cells were centrifuged for 2 min. at 1,000 rpm. Media was then aspirated, and cells were resuspended in Earle's balanced salt solution to a concentration of 0.75×10^6 cells/ml and allowed to recover for 25 min at 10° C.
At the beginning of each assay, 20 μl of cell suspension was dispensed into each well of a multi-hole 384-well SyncroPatch chip by the onboard pipettor. Cell sealing was initiated, and seal enhancer solution was added to facilitate seal formation. Upon completion of sealing, cells were washed 3 times with extracellular recording solution and the assay voltage protocol was started. Human Kv7.2, Kv7.4 or Kv7.5/7.3 channels were evaluated using a voltage protocol in which cells were voltage-clamped at a holding potential of −60 mV. Potassium currents were continuously activated with a series of three voltage steps to −30 mV for 3 seconds, 40 mV for 1 second and −90 mV for 4 seconds with 12 seconds between successive voltage sweeps. Potassium currents were measured from the −90 mV repolarizing step. Baseline current was assessed for 3.5 minutes prior to the addition of 5.6 μM zinc pyrithione (1 μM for Kv7.4). Kv7.2, Kv7.4 or Kv7.5/7.3 current in the presence of zinc pyrithione was acquired over five minutes to allow channels to reach steady state activity prior to addition of test agents. Channel activity was monitored for three minutes preceding the addition of 30 μM ML-213 (3 minutes) to achieve maximum activation. 150 mM TEA with 10 μM XE-991 was applied for 2 minutes to measure the leak current during maximum inhibition of Kv7.2, Kv7.4 or Kv7.5/7.3 channels.
Data were collected on the SyncroPatch platform using PatchControl software (Nanion) and processed and analyzed using DataControl Software (Nanion). Percent activation was calculated from potassium current as follows: The average current for the 5 sweeps in the presence of zinc pyrithione immediately preceding test agent addition was taken as the ‘control’ data. Likewise, the average potassium current in the presence of test agents 5 sweeps immediately preceding addition of 30 μM ML-213 was determined for ‘drug’ data. The average potassium current 5 sweeps immediately prior to addition of 150 mM TEA+10 μM XE-991 was determined for ‘max activation’ data while average currents from 5 sweeps immediately following addition of TEA was determined for ‘max inhibition’ data. Percent activation for each of the 384-wells of a sealchip was calculated as ((‘drug’−‘max inhibition’)/(‘max activation’−‘max inhibition’))*100 with Pipeline Pilot (Accelrys). […]
In general terms: Patch clamp records ionic current or voltage across a cell membrane.
With `COC(C)(CNC(=O)CC1CCCCC1)c1cccc(Cl)c1` (centres unmarked) [Example 19, N-[2-(3-chlorophenyl)-2-methoxy-propyl]-2-cyclohexyl-acetamide], the EC50 is 620 nM. `CC(F)(F)[C@H]1C[C@@H]1C(=O)NC[C@@]1(c2cccc(C#N)c2)CCO1` (mixture of isomers) [Example 113, (1SR,2SR)—N-[[(2S)-2-(3-cyanophenyl)oxetan-2-yl]methyl]-2-(1,1-difluoroethyl)cyclopropanecarboxamide]: the EC50 is 2180 nM. With `N#Cc1cccc([C@]2(CNC(=O)C(F)CC3CCCC3)CCO2)c1` (stereo partly drawn) [Example 103, N-[[(2S)-2-(3-cyanophenyl)oxetan-2-yl]methyl]-3-cyclopentyl-2-fluoro-propanamide], the 50% effective concentration (EC50) worked out at 6140 nM. Take `CCc1cc(C2(CNC(=O)[C@H]3C[C@@H]3c3ccccc3)CCO2)ccn1` (stereo partly drawn) [Example 121, (1S,2S)—N-[[2-(2-ethyl-4-pyridyl)oxetan-2-yl]methyl]-2-phenyl-cyclopropanecarboxamide]: the EC50 came out at 2510 nM.

In the case of `N#Cc1cccc([C@]2(CNC(=O)C3CC4(C3)CC43CCC3)CCO2)c1` (stereo partly drawn) [Example 105, N-[[(2S)-2-(3-cyanophenyl)oxetan-2-yl]methyl]dispiro[3.0.3^5.1^4]nonane-7-carboxamide], the EC50 came out at 910 nM.

Take `CC(C)(C)CNC(=O)NCC1(c2cccc(Cl)c2)CCO1` (centres unmarked) [Example 60, 1-[[2-(3-chlorophenyl)oxetan-2-yl]methyl]-3-(2,2-dimethylpropyl)urea]: the EC50 is 1050 nM. `N#Cc1cccc([C@@]2(CNC(=O)C3CC4CCC3CC4)CCO2)c1` (stereo partly drawn) [Example 98, N-[[(2R)-2-(3-cyanophenyl)oxetan-2-yl]methyl]bicyclo[2.2.2]octane-2-carboxamide]: the EC50 turned out to be 6650 nM. In the case of `CO[C@@](C)(CNC(=O)[C@H]1C[C@@H]1c1ccccc1)c1cccc(Cl)c1` [Example 2, (1S,2S)-N-[(2R)-2-(3-chlorophenyl)-2-methoxy-propyl]-2-phenyl-cyclopropanecarboxamide] it was 60 nM; in that of `O=C(NCC1(c2cccc(Cl)c2)CCO1)NC1CC2CCC1C2` (racemic) [Example 54, 1-[[2-(3-chlorophenyl)oxetan-2-yl]methyl]-3-[rac-(1S,2S,4R)-norbornan-2-yl]urea], 190 nM; in that of `O=C(NCC1(c2cccc(OC(F)F)n2)CCO1)C1CC12CCCCC2` (centres unmarked) [Example 123, N-[[2-[6-(difluoromethoxy)-2-pyridyl]oxetan-2-yl]methyl]spiro[2.5]octane-2-carboxamide], 170 nM.

As for `O=C(NCC1CCCC1)NCC1(c2cccc(Cl)c2)COC1` [Example 72, 1-[[3-(3-chlorophenyl)oxetan-3-yl]methyl]-3-(cyclopentylmethyl)urea], the EC50 was determined as 870 nM. With `COC(C)(CNC(=O)NCCCc1ccccc1)c1cccc(Cl)c1` (centres unmarked) [Example 32, 1-[2-(3-chlorophenyl)-2-methoxy-propyl]-3-(3-phenylpropyl)urea], the EC50 amounted to 1980 nM. As for `COc1cccc(NC(=O)NCC2(c3cccc(Cl)c3)CCO2)c1` (centres unmarked) [Example 50, 1-[[2-(3-chlorophenyl)oxetan-2-yl]methyl]-3-(3-methoxyphenyl)urea], the figure is 1650 nM; as for `COC(C)(CNC(=O)N[C@H]1CC2CCC1C2)c1cccc(Cl)c1` (mixture of isomers) [Example 25, 1-[2-(3-chlorophenyl)-2-methoxy-propyl]-3-[rac-(1S,2S,4R)-norbornan-2-yl]urea], 170 nM; as for `N#Cc1cccc([C@]2(CNC(=O)C3CC3n3cccc3)CCO2)c1` (stereo partly drawn) [Example 135, N-[[(2S)-2-(3-cyanophenyl)oxetan-2-yl]methyl]-2-pyrrol-1-yl-cyclopropanecarboxamide], 1140 nM. In the case of `O=C(NCC1CCCC1)NCC1(c2cccc(Cl)c2)CCO1` (centres unmarked) [Example 59, 1-[[2-(3-chlorophenyl)oxetan-2-yl]methyl]-3-(cyclopentylmethyl)urea] it was 320 nM; in that of `O=C(NCC1(c2cccc(Cl)c2)CCO1)C1CCCCC1` (centres unmarked) [Example 61], 7600 nM.
